Entries after “also recorded” stand apart in the source; their conditions may differ.
Test system: healthy male volunteers
Assay: Human Study 1: treatment-emergent adverse events (TEAE), safety, Modified OAA/S
Format: in vivo
Protocol: In human study 1, fospropofol disodium was formulated as a sterile aqueous solution at a concentration of 20 mg/mL. Each vial provided contained 20 mL of solution, suitable for intravenous injection. Fospropofol was administered as a single dose of 400 mg orally, directly into the duodenum by gastroscopy or intravenously over 10 min. In human study 2, fospropofol disodium in capsules (200 mg) or matching placebo was administered orally.
The first study was an absolute bioavailability study of fospropofol conducted at a single center (PRA Health Sciences) in Groningen, Netherlands, as a three-way crossover study. The study enrolled 7 healthy male volunteers between 18 and 45 years of age inclusive, with a body mass index between 18 and 28 kg/m^2. Subjects stayed in the clinical unit for three consecutive periods of 3 days each, with a 3-day washout, between periods. For six subjects, the order of the administration routes was as follows—period 1: PO, period 2: ID, and period 3: IV. For one subject the order of the administration routes was the following—period 1: ID, period 2: IV and period 3: PO. In this study a single dose of 400 mg was administered by each route. Blinding and placebo control was impractical due to the requirement of unsedated endoscopic administration of fospropofol into the duodenum. Safety and overall pharmacodynamic effect was evaluated based on adverse events, vital signs, electrocardiogram (ECG), Modified Observer's Assessment of Alertness/Sedation (OAA/S) score, clinical laboratory tests, and physical examination.

CC(C)c1cccc(C(C)C)c1OCOP(=O)(O)O [fospropofol]
TEAE NERVOUS SYSTEM DISORDERS, events (E) (400 mg PO): 6 | TEAE NERVOUS SYSTEM DISORDERS, subjects (%) (400 mg PO): 57% | TEAE PSYCHIATRIC DISORDERS, events (E) (400 mg PO): 1 | TEAE PSYCHIATRIC DISORDERS, subjects (%) (400 mg PO): 14% | TEAE TOTAL, events (E) (400 mg PO): 8 | TEAE TOTAL, subjects (%) (400 mg PO): 86% | TEAE dizziness, events (E) (400 mg PO): 1 | TEAE dizziness, subjects (%) (400 mg PO): 14% | TEAE euphoric mood, events (E) (400 mg PO): 1 | TEAE euphoric mood, subjects (%) (400 mg PO): 14% | TEAE nausea, events (E) (400 mg PO): 1 | TEAE nausea, subjects (%) (400 mg PO): 14% | TEAE paresthesia, events (E) (400 mg PO): 1 | TEAE paresthesia, subjects (%) (400 mg PO): 14% | TEAE somnolence, events (E) (400 mg PO): 4 | TEAE somnolence, subjects (%) (400 mg PO): 57% | time to resolution of euphoria (400 mg PO, one subject): 17 min | Modified OAA/S score, all subjects at all times (400 mg oral): 5 | TEAE BLOOD AND LYMPHATIC SYSTEM DISORDERS, events (E) (400 mg, Total (PO+ID+IV)): 1 | TEAE BLOOD AND LYMPHATIC SYSTEM DISORDERS, subjects (%) (400 mg, Total (PO+ID+IV)): 14% | TEAE EYE DISORDERS, events (E) (400 mg, Total (PO+ID+IV)): 5 | TEAE EYE DISORDERS, subjects (%) (400 mg, Total (PO+ID+IV)): 71% | TEAE GASTROINTESTINAL DISORDERS, events (E) (400 mg, Total (PO+ID+IV)): 6 | TEAE GASTROINTESTINAL DISORDERS, subjects (%) (400 mg, Total (PO+ID+IV)): 57% | TEAE GENERAL DISORDERS AND ADMINISTRATION SITE CONDITIONS, events (E) (400 mg, Total (PO+ID+IV)): 12 | TEAE GENERAL DISORDERS AND ADMINISTRATION SITE CONDITIONS, subjects (%) (400 mg, Total (PO+ID+IV)): 71% | TEAE INFECTIONS AND INFESTATIONS, events (E) (400 mg, Total (PO+ID+IV)): 1 | TEAE INFECTIONS AND INFESTATIONS, subjects (%) (400 mg, Total (PO+ID+IV)): 14% | TEAE MUSCULOSKELETAL AND CONNECTIVE TISSUE DISORDERS, events (E) (400 mg, Total (PO+ID+IV)): 2 | TEAE MUSCULOSKELETAL AND CONNECTIVE TISSUE DISORDERS, subjects (%) (400 mg, Total (PO+ID+IV)): 29% | TEAE NERVOUS SYSTEM DISORDERS, events (E) (400 mg, Total (PO+ID+IV)): 40 | TEAE NERVOUS SYSTEM DISORDERS, subjects (%) (400 mg, Total (PO+ID+IV)): 100% | TEAE PSYCHIATRIC DISORDERS, events (E) (400 mg, Total (PO+ID+IV)): 3 | TEAE PSYCHIATRIC DISORDERS, subjects (%) (400 mg, Total (PO+ID+IV)): 43% | TEAE REPRODUCTVE SYSTEM AND BREAST DISORDERS, events (E) (400 mg, Total (PO+ID+IV)): 1 | TEAE REPRODUCTVE SYSTEM AND BREAST DISORDERS, subjects (%) (400 mg, Total (PO+ID+IV)): 14% | TEAE SKIN AND SUBCUTANEOUS TISSUE DISORDERS, events (E) (400 mg, Total (PO+ID+IV)): 2 | TEAE SKIN AND SUBCUTANEOUS TISSUE DISORDERS, subjects (%) (400 mg, Total (PO+ID+IV)): 29% | TEAE TOTAL, subjects (%) (400 mg, Total (PO+ID+IV)): 100% | TEAE burning sensation, events (E) (400 mg, Total (PO+ID+IV)): 6 | TEAE burning sensation, subjects (%) (400 mg, Total (PO+ID+IV)): 43% | TEAE catheter site pain, events (E) (400 mg, Total (PO+ID+IV)): 1 | TEAE catheter site pain, subjects (%) (400 mg, Total (PO+ID+IV)): 14% | TEAE diplopia, events (E) (400 mg, Total (PO+ID+IV)): 1 | TEAE diplopia, subjects (%) (400 mg, Total (PO+ID+IV)): 14% | TEAE disorientation, events (E) (400 mg, Total (PO+ID+IV)): 1 | TEAE disorientation, subjects (%) (400 mg, Total (PO+ID+IV)): 14% | TEAE dizziness postural, events (E) (400 mg, Total (PO+ID+IV)): 1 | TEAE dizziness postural, subjects (%) (400 mg, Total (PO+ID+IV)): 14% | TEAE dizziness, events (E) (400 mg, Total (PO+ID+IV)): 5 | TEAE dizziness, subjects (%) (400 mg, Total (PO+ID+IV)): 43% | TEAE dry mouth, events (E) (400 mg, Total (PO+ID+IV)): 1 | TEAE dry mouth, subjects (%) (400 mg, Total (PO+ID+IV)): 14% | TEAE dyspepsia, events (E) (400 mg, Total (PO+ID+IV)): 1 | TEAE dyspepsia, subjects (%) (400 mg, Total (PO+ID+IV)): 14% | TEAE ecchymosis, events (E) (400 mg, Total (PO+ID+IV)): 1 | TEAE ecchymosis, subjects (%) (400 mg, Total (PO+ID+IV)): 14% | TEAE euphoric mood, events (E) (400 mg, Total (PO+ID+IV)): 2 | TEAE euphoric mood, subjects (%) (400 mg, Total (PO+ID+IV)): 29% | TEAE fatigue, events (E) (400 mg, Total (PO+ID+IV)): 4 | TEAE fatigue, subjects (%) (400 mg, Total (PO+ID+IV)): 43% | TEAE feeling abnormal, events (E) (400 mg, Total (PO+ID+IV)): 1 | TEAE feeling abnormal, subjects (%) (400 mg, Total (PO+ID+IV)): 14% | TEAE feeling cold, events (E) (400 mg, Total (PO+ID+IV)): 1 | TEAE feeling cold, subjects (%) (400 mg, Total (PO+ID+IV)): 14% | TEAE feeling drunk, events (E) (400 mg, Total (PO+ID+IV)): 1 | TEAE feeling drunk, subjects (%) (400 mg, Total (PO+ID+IV)): 14% | TEAE flatulence, events (E) (400 mg, Total (PO+ID+IV)): 1 | TEAE flatulence, subjects (%) (400 mg, Total (PO+ID+IV)): 14% | TEAE genital pruritis male, events (E) (400 mg, Total (PO+ID+IV)): 1 | TEAE genital pruritis male, subjects (%) (400 mg, Total (PO+ID+IV)): 14% | TEAE herpes simplex, events (E) (400 mg, Total (PO+ID+IV)): 1 | TEAE herpes simplex, subjects (%) (400 mg, Total (PO+ID+IV)): 14% | TEAE lymph node pain, events (E) (400 mg, Total (PO+ID+IV)): 1 | TEAE lymph node pain, subjects (%) (400 mg, Total (PO+ID+IV)): 14% | TEAE muscle fatigue, events (E) (400 mg, Total (PO+ID+IV)): 2 | TEAE muscle fatigue, subjects (%) (400 mg, Total (PO+ID+IV)): 29% | TEAE nausea, events (E) (400 mg, Total (PO+ID+IV)): 2 | TEAE nausea, subjects (%) (400 mg, Total (PO+ID+IV)): 14% | TEAE paresthesia, events (E) (400 mg, Total (PO+ID+IV)): 10 | TEAE paresthesia, subjects (%) (400 mg, Total (PO+ID+IV)): 86% | TEAE proctalgia, events (E) (400 mg, Total (PO+ID+IV)): 1 | TEAE proctalgia, subjects (%) (400 mg, Total (PO+ID+IV)): 14% | TEAE rash, events (E) (400 mg, Total (PO+ID+IV)): 1 | TEAE rash, subjects (%) (400 mg, Total (PO+ID+IV)): 14% | TEAE sluggishness, events (E) (400 mg, Total (PO+ID+IV)): 3 | TEAE sluggishness, subjects (%) (400 mg, Total (PO+ID+IV)): 43% | TEAE somnolence, events (E) (400 mg, Total (PO+ID+IV)): 11 | TEAE somnolence, subjects (%) (400 mg, Total (PO+ID+IV)): 100% | TEAE speech disorder, events (E) (400 mg, Total (PO+ID+IV)): 6 | TEAE speech disorder, subjects (%) (400 mg, Total (PO+ID+IV)): 86% | TEAE subrapubic pain, events (E) (400 mg, Total (PO+ID+IV)): 1 | TEAE subrapubic pain, subjects (%) (400 mg, Total (PO+ID+IV)): 14% | TEAE tremor, events (E) (400 mg, Total (PO+ID+IV)): 1 | TEAE tremor, subjects (%) (400 mg, Total (PO+ID+IV)): 14% | TEAE visual disturbance, events (E) (400 mg, Total (PO+ID+IV)): 4 | TEAE visual disturbance, subjects (%) (400 mg, Total (PO+ID+IV)): 57% | TEAEs considered possibly or probably related to study drug (400 mg, all routes): Seventy | clinical laboratory results, vital signs, ECG, physical examination (400 mg, all routes): No clinically-relevant abnormalities | lowest observed Modified OAA/S score (400 mg, all routes): 4 | serious adverse events (400 mg, all routes): No subject experienced a serious adverse event; also recorded: No severe or serious TEAEs | severity of TEAEs (400 mg, all routes): mild | time to resolution of TEAEs (all but one) (400 mg, all routes, after dosing): ≤ 1 h | time by which all subjects had Modified OAA/S scores of 5 (400 mg, all routes, postdose): ≤ 1.5 h
